Our source for the IC50 values is patent US20220356174A1, “PYRIDIN-2-ONE COMPOUNDS USEFUL AS SMARCA2 ANTAGONISTS” (Epizyme, Inc., priority 2018, published 2022).

pIC50: −log10 of the molar value.

Sequence of FL-SMARCA4 (P51532 whole entry): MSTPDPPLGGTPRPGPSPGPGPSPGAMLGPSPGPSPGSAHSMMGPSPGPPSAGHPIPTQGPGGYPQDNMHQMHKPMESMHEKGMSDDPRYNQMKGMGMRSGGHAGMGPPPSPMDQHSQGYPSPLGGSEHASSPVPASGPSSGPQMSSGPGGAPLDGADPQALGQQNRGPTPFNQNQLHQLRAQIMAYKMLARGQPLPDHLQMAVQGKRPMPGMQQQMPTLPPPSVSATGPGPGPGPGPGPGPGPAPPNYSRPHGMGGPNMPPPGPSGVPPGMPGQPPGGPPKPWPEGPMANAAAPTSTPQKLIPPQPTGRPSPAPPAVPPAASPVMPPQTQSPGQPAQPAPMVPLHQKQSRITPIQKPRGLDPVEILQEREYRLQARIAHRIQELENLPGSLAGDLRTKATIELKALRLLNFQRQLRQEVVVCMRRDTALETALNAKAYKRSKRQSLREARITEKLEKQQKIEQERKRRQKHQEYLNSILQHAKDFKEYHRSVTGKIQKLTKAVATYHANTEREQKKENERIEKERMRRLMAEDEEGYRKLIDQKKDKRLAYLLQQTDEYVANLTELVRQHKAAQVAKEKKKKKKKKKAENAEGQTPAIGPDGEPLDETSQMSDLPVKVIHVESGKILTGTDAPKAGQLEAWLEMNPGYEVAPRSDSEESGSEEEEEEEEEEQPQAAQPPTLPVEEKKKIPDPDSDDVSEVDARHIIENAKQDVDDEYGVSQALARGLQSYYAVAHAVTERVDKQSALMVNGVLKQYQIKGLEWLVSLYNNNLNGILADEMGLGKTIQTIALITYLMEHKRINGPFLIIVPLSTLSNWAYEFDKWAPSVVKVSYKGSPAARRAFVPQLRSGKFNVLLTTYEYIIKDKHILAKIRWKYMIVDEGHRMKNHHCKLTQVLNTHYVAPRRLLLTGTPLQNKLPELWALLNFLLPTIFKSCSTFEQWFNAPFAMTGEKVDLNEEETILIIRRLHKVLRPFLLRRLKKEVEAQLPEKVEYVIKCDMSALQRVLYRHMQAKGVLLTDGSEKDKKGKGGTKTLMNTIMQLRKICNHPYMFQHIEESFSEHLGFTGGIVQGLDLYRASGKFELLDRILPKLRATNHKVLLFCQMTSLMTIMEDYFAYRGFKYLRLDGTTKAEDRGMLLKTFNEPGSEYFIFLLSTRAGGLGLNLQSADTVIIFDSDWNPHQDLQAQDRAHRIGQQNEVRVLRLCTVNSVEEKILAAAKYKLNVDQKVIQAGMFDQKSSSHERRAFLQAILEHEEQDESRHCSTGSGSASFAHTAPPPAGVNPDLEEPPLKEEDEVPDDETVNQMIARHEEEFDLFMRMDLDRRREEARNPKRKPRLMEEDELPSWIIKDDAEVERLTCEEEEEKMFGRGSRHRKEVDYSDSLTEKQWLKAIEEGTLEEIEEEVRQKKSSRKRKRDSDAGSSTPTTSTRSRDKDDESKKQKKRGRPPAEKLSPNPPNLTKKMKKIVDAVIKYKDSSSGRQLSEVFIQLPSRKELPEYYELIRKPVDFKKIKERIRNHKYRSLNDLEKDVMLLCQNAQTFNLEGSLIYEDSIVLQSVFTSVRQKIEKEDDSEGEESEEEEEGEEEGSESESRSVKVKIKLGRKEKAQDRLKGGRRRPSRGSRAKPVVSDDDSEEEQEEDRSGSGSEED

The target in one experiment is T1, FL-SMARCA2 (full-length human SMARCA2 isoform 1) (Homo sapiens, UniProt P51531).
T1 construct: FLAG tag (YKDDDDK) (C); made in house; host or cells: Sf21 insect cells (baculovirus, pFastBacI)
T1 sequence (P51531 with tags, fused parts or gaps): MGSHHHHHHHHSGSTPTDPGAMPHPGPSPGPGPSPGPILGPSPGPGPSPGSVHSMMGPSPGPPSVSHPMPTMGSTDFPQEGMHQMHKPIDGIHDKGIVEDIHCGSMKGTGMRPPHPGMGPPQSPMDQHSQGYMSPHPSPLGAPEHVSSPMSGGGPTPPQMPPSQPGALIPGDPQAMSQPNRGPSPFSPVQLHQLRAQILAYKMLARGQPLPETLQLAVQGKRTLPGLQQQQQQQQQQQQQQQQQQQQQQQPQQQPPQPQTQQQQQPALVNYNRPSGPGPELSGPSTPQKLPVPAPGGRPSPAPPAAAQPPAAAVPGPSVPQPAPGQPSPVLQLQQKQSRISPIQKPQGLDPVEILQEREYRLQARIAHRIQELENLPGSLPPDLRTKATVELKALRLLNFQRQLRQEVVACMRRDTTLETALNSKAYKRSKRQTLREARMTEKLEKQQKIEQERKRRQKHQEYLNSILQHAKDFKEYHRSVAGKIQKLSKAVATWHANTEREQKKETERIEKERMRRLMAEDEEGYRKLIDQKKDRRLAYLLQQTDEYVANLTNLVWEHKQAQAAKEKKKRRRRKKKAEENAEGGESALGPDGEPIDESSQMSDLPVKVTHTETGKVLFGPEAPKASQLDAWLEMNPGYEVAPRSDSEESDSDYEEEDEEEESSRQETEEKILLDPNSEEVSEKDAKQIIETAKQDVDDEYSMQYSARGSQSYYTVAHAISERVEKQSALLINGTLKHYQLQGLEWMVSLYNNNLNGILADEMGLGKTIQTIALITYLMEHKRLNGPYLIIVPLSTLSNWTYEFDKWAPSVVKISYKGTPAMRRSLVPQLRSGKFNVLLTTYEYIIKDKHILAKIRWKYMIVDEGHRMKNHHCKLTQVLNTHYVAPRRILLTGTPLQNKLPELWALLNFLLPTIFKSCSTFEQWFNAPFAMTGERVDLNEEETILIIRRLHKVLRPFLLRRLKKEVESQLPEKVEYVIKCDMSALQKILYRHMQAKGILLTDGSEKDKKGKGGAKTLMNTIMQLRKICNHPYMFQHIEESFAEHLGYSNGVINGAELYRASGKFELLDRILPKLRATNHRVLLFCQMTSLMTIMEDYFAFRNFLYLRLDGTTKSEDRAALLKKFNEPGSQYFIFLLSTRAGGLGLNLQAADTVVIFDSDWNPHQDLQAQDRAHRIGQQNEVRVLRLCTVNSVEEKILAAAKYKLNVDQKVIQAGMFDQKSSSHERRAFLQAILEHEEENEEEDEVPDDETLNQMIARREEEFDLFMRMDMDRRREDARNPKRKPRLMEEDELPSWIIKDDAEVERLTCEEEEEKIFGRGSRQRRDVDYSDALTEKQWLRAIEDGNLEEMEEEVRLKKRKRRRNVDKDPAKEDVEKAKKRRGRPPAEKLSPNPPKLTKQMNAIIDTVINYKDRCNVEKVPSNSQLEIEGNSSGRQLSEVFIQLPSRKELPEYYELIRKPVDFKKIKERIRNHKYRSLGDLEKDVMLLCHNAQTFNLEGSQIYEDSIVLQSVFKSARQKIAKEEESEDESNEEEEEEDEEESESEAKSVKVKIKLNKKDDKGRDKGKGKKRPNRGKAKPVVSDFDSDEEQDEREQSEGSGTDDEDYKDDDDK
Put plainly: SMARCA2 ATPase activity assay (ADP-Glo, chicken mononucleosome substrate). Type of experiment: biochemical. Conditions: Table 3.1; ATPase assay, enzyme 5 nM, ATP 250 uM, chicken mononucleosome 10 nM, 30 min preincubation. On the technique in general: ADP-Glo turns the ADP formed in a reaction into a luminescent signal.
For the compound `CCn1cc(NC(=O)c2cc(OC)c(O)s2)ccc1=O` [Compound 179], the pIC50 was under 4.30.
Still for that read-out and setting: then `N#Cc1cc(C(=O)Nc2cc(Cl)c(=O)n(CC(F)(F)F)c2)sc1Cl` [Compound 208], with 6.91.
Same read-out and setting: to `CCn1cc(NC(=O)c2cc(C#CCN)c(Cl)s2)ccc1=O` [Compound 292] belongs 5.17; to `CCn1cc(NC(=O)c2cc(Cl)c(Cl)s2)cc(OCCN2CCN(C)CC2)c1=O` [Compound 119], under 4.30.
Consider `O=C(Nc1ccc(=O)n(CCO)c1)c1cc(Cl)c(Cl)s1` [Compound 83], for which the pIC50 is 4.68.
For the compound `CN(C)C(=O)c1ccc(C(=O)Nc2cc(F)c(=O)n(CCF)c2)s1` [Compound 306], the pIC50 was under 4.30.
Same read-out and setting: to `CS(=O)(=O)c1sc(C(=O)Nc2cc(F)c(=O)n(CCF)c2)cc1Cl` [Compound 301] belongs 4.78.
The same measure, in the same setting: to `O=C(Nc1cc(F)c(=O)n(CCF)c1)c1cc(Cl)c(C#CCN2CCCC2)s1` [Compound 276] belongs 4.54.
The same measure, in the same setting: to `CCn1cc(NC(=O)c2ccc(F)s2)ccc1=O` [Compound 26] belongs 4.71; to `CCn1cc(NC(=O)c2cc(Cl)[nH]c2Cl)ccc1=O` [Compound 97], under 4.30.
For `CCn1cc(NC(=O)c2cc(I)cn2C)ccc1=O` [Compound 51], the pIC50 was 4.33.
On the same count and under the same terms, then `CS(=O)(=O)c1ccc(C(=O)Nc2cc(F)c(=O)n(CCF)c2)s1` [Compound 288], with under 4.30; and `Cn1cc(NC(=O)c2cc(Cl)c(Cl)s2)cc(Cl)c1=O` [Compound 178], with 4.51; and `CCn1cc(NC(=O)c2cn(C(F)(F)F)c(Cl)n2)ccc1=O` [Compound 124], with under 4.30.
With `O=C(Nc1cc(F)c(=O)n(CCF)c1)c1cc(Cl)c(C(O)C(F)(F)F)s1` (centres unmarked) [Compound 289], the pIC50 was 4.98.
On to `Cn1cc(NC(=O)c2coc(Br)c2)cc(Cl)c1=O` [Compound 2], for which the pIC50 is 4.48.
Still for that read-out and setting: then `CCn1cc(NC(=O)c2nc(Cl)cs2)ccc1=O` [Compound 63], with under 4.30.

The same experiment, now with this note: Table 3d.1; ATPase assay, enzyme 5 nM, ATP 250 uM, chicken mononucleosome 10 nM, 30 min preincubation; read-out: FL-SMARCA2 IC>50.
As to `O=C(Nc1ccc(=O)n(CC(F)(F)F)n1)c1cc(Cl)c(Cl)s1` [Compound 21d], the pIC50 was 4.78.
Turning to `O=C(Nc1cc(F)c(=O)n(CC(F)F)c1)c1coc(Cl)n1` [Compound 37d], the pIC50 is under 4.30.
The same measure, in the same setting: to `Cc1cc(=O)n(C)cc1NC(=O)[C@@H]1CCCO[C@H]1c1cn[nH]c1` [Compound 7d] belongs under 4.30; to `CCn1nc(NC(=O)c2cc(Cl)c(Cl)s2)ccc1=O` [Compound 19d], under 4.30.
Regarding `Cc1cc(=O)n(C)cc1NC(=O)C1CCCN(Cc2ccccc2)C1` (centres unmarked) [Compound 4d], the pIC50 is 4.49.

The next experiment addresses FL-SMARCA4 (Homo sapiens, UniProt P51532). Put plainly: SMARCA4 ATPase activity assay (ADP-Glo, chicken mononucleosome substrate). The conditions noted are these: FL-SMARCA4 IC50.
Compound `O=C(Nc1ccc(=O)n(CC(F)(F)F)n1)c1cc(Cl)c(Cl)s1` [Compound 21d] showed a pIC50 of under 4.30.
The same measure, in the same setting: then `O=C(Nc1cc(F)c(=O)n(CC(F)F)c1)c1coc(Cl)n1` [Compound 37d], with under 4.30.
On to `Cc1cc(=O)n(C)cc1NC(=O)[C@@H]1CCCO[C@H]1c1cn[nH]c1` [Compound 7d], for which the pIC50 was under 4.30.
`CCn1nc(NC(=O)c2cc(Cl)c(Cl)s2)ccc1=O` [Compound 19d]: the pIC50 was under 4.30.
Same read-out and setting: then `Cc1cc(=O)n(C)cc1NC(=O)C1CCCN(Cc2ccccc2)C1` (centres unmarked) [Compound 4d], with under 4.30.

The same experiment, now with this note: FL-SMARCA4 IC50, Table 3.2; ATPase assay, enzyme 5 nM, ATP 250 uM, chicken mononucleosome 10 nM, 30 min preincubation.
Compound `CCn1cc(NC(=O)c2cc(OC)c(O)s2)ccc1=O` [Compound 179] showed a pIC50 of under 4.30.
`N#Cc1cc(C(=O)Nc2cc(Cl)c(=O)n(CC(F)(F)F)c2)sc1Cl` [Compound 208] showed a pIC50 of 6.20.
On the same count and under the same terms, then `CCn1cc(NC(=O)c2cc(C#CCN)c(Cl)s2)ccc1=O` [Compound 292], with 5.07.
On the same count and under the same terms, then `CCn1cc(NC(=O)c2cc(Cl)c(Cl)s2)cc(OCCN2CCN(C)CC2)c1=O` [Compound 119], with under 4.30; and `O=C(Nc1ccc(=O)n(CCO)c1)c1cc(Cl)c(Cl)s1` [Compound 83], with under 4.30; and `CN(C)C(=O)c1ccc(C(=O)Nc2cc(F)c(=O)n(CCF)c2)s1` [Compound 306], with under 4.30.
Still for that read-out and setting: then `CS(=O)(=O)c1sc(C(=O)Nc2cc(F)c(=O)n(CCF)c2)cc1Cl` [Compound 301], with under 4.30; and `O=C(Nc1cc(F)c(=O)n(CCF)c1)c1cc(Cl)c(C#CCN2CCCC2)s1` [Compound 276], with 4.33.
The compound `CCn1cc(NC(=O)c2ccc(F)s2)ccc1=O` [Compound 26] had a pIC50 of under 4.30.
`CCn1cc(NC(=O)c2cc(Cl)[nH]c2Cl)ccc1=O` [Compound 97]: the pIC50 is under 4.30.
For `CCn1cc(NC(=O)c2cc(I)cn2C)ccc1=O` [Compound 51], the pIC50 was under 4.30.
On the same count and under the same terms, to `CS(=O)(=O)c1ccc(C(=O)Nc2cc(F)c(=O)n(CCF)c2)s1` [Compound 288] belongs under 4.30; to `Cn1cc(NC(=O)c2cc(Cl)c(Cl)s2)cc(Cl)c1=O` [Compound 178], 4.42; to `CCn1cc(NC(=O)c2cn(C(F)(F)F)c(Cl)n2)ccc1=O` [Compound 124], under 4.30.
The same measure, in the same setting: then `O=C(Nc1cc(F)c(=O)n(CCF)c1)c1cc(Cl)c(C(O)C(F)(F)F)s1` (centres unmarked) [Compound 289], with 4.37; and `Cn1cc(NC(=O)c2coc(Br)c2)cc(Cl)c1=O` [Compound 2], with under 4.30.
In turn, `CCn1cc(NC(=O)c2nc(Cl)cs2)ccc1=O` [Compound 63] showed a pIC50 of under 4.30.
